Earlier results in PubChem BioAssay AID1259409 (Chemical Carcinogenesis Research Information System (CCRIS), 2018).

System: rodent chemically induced tumor inhibition, incidence and multiplicity
Experiment: CCRIS tumor inhibitor studies
Details: Route [Inhibitor]: ORAL

Cn1c(=O)c2c(ncn2C)n(C)c1=O
tumour outcome (control, treated, inhibition, significance) (Carcinogen: 2-AMINO-1-METHYL-6-PHENYLIMIDAZO[4,5-B]PYRIDINE [105650-23-5], Dose [Inhibitor]: 0.1% IN DRINKING WATER FOR 54 WK (STUDY DURATION: 54 WK), Species: RAT, Strain/Sex: F344/DUCRJ/FEMALE, Target Tissue: Type of Lesion: MAMMARY GLAND: ADENOMA OR ADENOCARCINOMA, Dose [Carcinogen]: 0.02% IN DIET FOR 54 WK (STUDY DURATION: 54 WK), Promoter: NONE): 8/20 (40%), 2/20 (10%), 75%, p<0.05 | tumour outcome (control, treated, inhibition, significance) (Carcinogen: 4-(METHYLNITROSAMINO)-1-(3-PYRIDYL)-1-BUTANONE, 64091-91-4, Dose [Inhibitor]: 0, 1120 MG IN DRINKING WATER FOR 13 WK BEGINNING 2 WK PRIOR TO CARCINOGEN TREATMENT (STUDY DURATION: 18 WK), Species: MOUSE, Strain/Sex: STRAIN-A/FEMALE, Target Tissue: Type of Lesion: LUNG: ADENOMA, Dose [Carcinogen]: 11.65 MG/KG 3/WK FOR 10 WK, Promoter: NONE USED): 100%, 100%, 0%, not significant | tumour outcome (control, treated, inhibition, significance) (Carcinogen: 4-(METHYLNITROSAMINO)-1-(3-PYRIDYL-1-BUTANONE), 64091-91-4, Dose [Inhibitor]: 0, 170 PPM IN DRINKING WATER FOR 22WK BEGINNING 1 WK PRIOR TO CARCINOGEN TREATMENT (STUDY DURATION:101 WK), Species: RAT, Strain/Sex: F344/MALE, Target Tissue: Type of Lesion: LIVER: TUMOR, Dose [Carcinogen]: 1.5 MG/KG 3/WK FOR 20 WK, Promoter: NONE USED): 11/32 (34%), 5/20 (25%), 26%, not significant | tumour outcome (control, treated, inhibition, significance) (Carcinogen: 4-(METHYLNITROSAMINO)-1-(3-PYRIDYL-1-BUTANONE), 64091-91-4, Dose [Inhibitor]: 0, 170 PPM IN DRINKING WATER FOR 22 WK BEGINNING 1 WK PRIOR TO CARCINOGEN TREATMENT (STUDY DURATION:101 WK), Species: RAT, Strain/Sex: F344/MALE, Target Tissue: Type of Lesion: LUNG:TUMOR, Dose [Carcinogen]: 1.5 MG/KG 3/WK FOR 20 WK, Promoter: NONE USED): 15/32 (47%), 4/20 (20%), 57%, not significant | tumour outcome (control, treated, inhibition, significance) (Carcinogen: 4-(METHYLNITROSAMINO)-1-(3-PYRIDYL-1-BUTANONE), 64091-91-4, Dose [Inhibitor]: 0, 170 PPM IN DRINKING WATER FOR 22 WK BEGINNING 1 WK PRIOR TO CARCINOGEN TREATMENT (STUDY DURATION:101 WK), Species: RAT, Strain/Sex: F344/MALE, Target Tissue: Type of Lesion: NASAL CAVITY: TUMOR, Dose [Carcinogen]: 1.5 MG/KG 3/WK FOR 20 WK, Promoter: NONE USED): 6/32 (19%), 3/20 (15%), 21%, not significant | tumour outcome (control, treated, inhibition, significance) (Carcinogen: 4-(METHYLNITROSAMINO)-1-(3-PYRIDYL-1-BUTANONE), 64091-91-4, Dose [Inhibitor]: 0, 680 PPM IN DRINKING WATER FOR 22 WK BEGINNING 1 WK PRIOR TO CARCINOGEN TREATMENT (STUDY DURATION:101 WK), Species: RAT, Strain/Sex: F344/MALE, Target Tissue: Type of Lesion: LUNG:TUMOR, Dose [Carcinogen]: 1.5 MG/KG 3/WK FOR 20 WK, Promoter: NONE USED): 15/32 (47%), 2/20 (10%), 79%, p<0.01 | tumour outcome (control, treated, inhibition, significance) (Carcinogen: 4-(METHYLNITROSAMINO)-1-(3-PYRIDYL-1-BUTANONE), 64091-91-4, Dose [Inhibitor]: 0, 680 PPM IN DRINKING WATER FOR 22 WK BEGINNING 1 WK PRIOR TO CARCINOGEN TREATMENT (STUDY DURATION: 101 WK), Species: RAT, Strain/Sex: F344/MALE, Target Tissue: Type of Lesion: NASAL CAVITY: TUMOR, Dose [Carcinogen]: 1.5 MG/KG 3/WK FOR 20 WK, Promoter: NONE USED): 6/32 (19%), 5/20 (25%), -32%, not significant | tumour outcome (control, treated, inhibition, significance) (Carcinogen: 4-METHYLNITROSAMINO-1-(3-PYRIDYL)-1-BUTANONE, 64091-91-4, Dose [Inhibitor]: 0, 1120 PPM IN DRINKING WATER 2 WK PRIOR TO CARCINOGEN AND CONTINUING FOR 13 WK (STUDY DURATION: 29 WK), Species: MOUSE, Strain/Sex: A/J/FEMALE, Target Tissue: Type of Lesion: LUNG: ADENOMA, Dose [Carcinogen]: 11.65 MG/KG IN CORN OIL 3/WK FOR 10 WK, Promoter: NONE USED): 100%, 100%, 0%, not significant | tumour outcome (control, treated, inhibition, significance) (Carcinogen: 7,12-DIMETHYLBENZ[A]ANTHRACENE, 57-97-6, Dose [Inhibitor]: 0, 500 MG/L IN DRINKING WATER BEGINNING AT 27 D OF AGE AND CONTINUING TO 59 D OF AGE (STUDY DURATION: 52 WK), Species: RAT, Strain/Sex: SPRAGUE-DAWLEY/FEMALE, Target Tissue: Type of Lesion: MAMMARY GLAND: BENIGN TUMOR, Dose [Carcinogen]: 0.5 MG/100 G BW ONCE AT 55 D OF AGE, Promoter: NONE USED): 71/73 (97%), 65/70 (93%), 4%, not significant | tumour outcome (control, treated, inhibition, significance) (Carcinogen: 7,12-DIMETHYLBENZ[A]ANTHRACENE, 57-97-6, Dose [Inhibitor]: 0, 500 MG/L IN DRINKING WATER BEGINNING AT 27 D OF AGE AND CONTINUING TO 59 D OF AGE (STUDY DURATION: 52 WK), Species: RAT, Strain/Sex: SPRAGUE-DAWLEY/FEMALE, Target Tissue: Type of Lesion: MAMMARY GLAND: CARCINOMA, Dose [Carcinogen]: 0.5 MG/100 G BW ONCE AT 55 D OF AGE, Promoter: NONE USED): 42/73 (58%), 20/70 (29%), 50%, p<0.001 | tumour outcome (control, treated, inhibition, significance) (Carcinogen: 7,12-DIMETHYLBENZ[A]ANTHRACENE, 57-97-6, Dose [Inhibitor]: 0, 500 MG/L IN DRINKING WATER BEGINNING AT 59 D OF AGE AND CONTINUING FOR DURATION OF STUDY (STUDY DURATION: 48 WK), Species: RAT, Strain/Sex: SPRAGUE-DAWLEY/FEMALE, Target Tissue: Type of Lesion: MAMMARY GLAND: BENIGN TUMOR, Dose [Carcinogen]: 0.5 MG/100 G BW ONCE AT 55 D OF AGE, Promoter: NONE USED): 70/72 (97%), 55/62 (89%), 8%, p,0.05 | tumour outcome (control, treated, inhibition, significance) (Carcinogen: 7,12-DIMETHYLBENZ[A]ANTHRACENE, 57-97-6, Dose [Inhibitor]: 0, 500 MG/L IN DRINKING WATER BEGINNING AT 59 D OF AGE AND CONTINUING FOR DURATION OF STUDY (STUDY DURATION: 48 WK), Species: RAT, Strain/Sex: SPRAGUE-DAWLEY/FEMALE, Target Tissue: Type of Lesion: MAMMARY GLAND: CARCINOMA, Dose [Carcinogen]: 0.5 MG/100 G BW ONCE AT 55 D OF AGE, Promoter: NONE USED): 39/72 (54%), 31/62 (50%), 7%, not significant | tumour outcome (control, treated, inhibition, significance) (Carcinogen: 7,12-DIMETHYLBENZ[A]ANTHRACENE, 57-97-6, Dose [Inhibitor]: 0, 500 MG/L IN DRINKING WATER OF 58 DAY OLD VIRGIN RATS (STUDY DURATION: 56 WK), Species: RAT, Strain/Sex: SPRAGUE-DAWLEY/FEMALE, Target Tissue: Type of Lesion: MAMMARY GLAND: CARCINOMA, Dose [Carcinogen]: 2 MG/100 G BW ONCE AT 55 D OF AGE, Promoter: NONE USED): 95%, 100%, -5%, not significant
